Reference: ChEMBL document CHEMBL4813984, “An original pronucleotide strategy for the simultaneous delivery of two bioactive drugs” (Eur J Med Chem, 2021)

How the values were obtained:
[1] = system: Human immunodeficiency virus 1; assay: Antiviral activity against HIV-1 infected in human CEM-SS cells assessed as reduction in viral multiplication by measuring decrease in reverse transcriptase activity incubated for 5 days; format: functional, organism-based; conditions: Human immunodeficiency virus 1, CEM-SS, 120 h
[2] = Cytotoxicity against human CEM-SS cells assessed as reduction in cell viability incubated for 5 days by MTT assay; format: cell-based; conditions: time 5 day
[3] = Selectivity index, ratio of CC50 for human CEM-SS cells to EC50 for antiviral activity against HIV-1 infected in human CEM-SS cells; format: toxicity, cell-based; conditions: read-out: Ratio CC50/EC50
[4] = system: Human immunodeficiency virus 1; assay: Antiviral activity against HIV-1 infected in human MT4 cells assessed as reduction in virus-indued cytopathogenicity incubated for 5 days by MTT assay; format: functional, organism-based; conditions: Human immunodeficiency virus 1, MT4, 120 h
[5] = Cytotoxicity against human MT4 cells assessed as reduction in cell viability incubated for 5 days by MTT assay; format: cell-based; conditions: time 5 day
[6] = Selectivity index, ratio of CC50 for human MT4 cells to EC50 for antiviral activity against HIV-1 infected in human MT4 cells; format: toxicity, cell-based; conditions: read-out: Ratio CC50/EC50
[7] = system: Human immunodeficiency virus 1; assay: Antiviral activity against HIV-1 infected in human CEM-SS cells assessed as reduction in viral multiplication by measuring decrease in reverse transcriptase activity incubated for 5 days in presence of AZT; format: functional, organism-based; conditions: Human immunodeficiency virus 1, CEM-SS, 120 h
[8] = Cytotoxicity against human CEM-SS cells assessed as reduction in cell viability incubated for 5 days in presence of AZT by MTT assay; format: cell-based; conditions: time 5 day
[9] = Selectivity index, ratio of CC50 for human CEM-SS cells to EC50 for antiviral activity against HIV-1 infected in human CEM-SS cells in presence of AZT; format: toxicity, cell-based; conditions: read-out: Ratio CC50/EC50
[10] = system: Human immunodeficiency virus 1; assay: Antiviral activity against HIV-1 infected in human CEM-SS cells assessed as reduction in viral multiplication by measuring decrease in reverse transcriptase activity incubated for 5 days in presence of ddA; format: functional, organism-based; conditions: Human immunodeficiency virus 1, CEM-SS, 120 h
[11] = Cytotoxicity against human CEM-SS cells assessed as reduction in cell viability incubated for 5 days in presence of ddA by MTT assay; format: cell-based; conditions: time 5 day
[12] = Selectivity index, ratio of CC50 for human CEM-SS cells to EC50 for antiviral activity against HIV-1 infected in human CEM-SS cells in presence of ddA; format: toxicity, cell-based; conditions: read-out: Ratio CC50/EC50
[13] = system: Human immunodeficiency virus 1; assay: Antiviral activity against HIV-1 infected in human MT4 cells assessed as reduction in virus-indued cytopathogenicity incubated for 5 days in presence of AZT by MTT assay; format: functional, organism-based; conditions: Human immunodeficiency virus 1, MT4, 120 h
[14] = Cytotoxicity against human MT4 cells assessed as reduction in cell viability incubated for 5 days in presence of AZT by MTT assay; format: cell-based; conditions: time 5 day
[15] = Selectivity index, ratio of CC50 for human MT4 cells to EC50 for antiviral activity against HIV-1 infected in human MT4 cells in presence of AZT; format: toxicity, cell-based; conditions: read-out: Ratio CC50/EC50
[16] = system: Human immunodeficiency virus 1; assay: Antiviral activity against HIV-1 infected in human MT4 cells assessed as reduction in virus-indued cytopathogenicity incubated for 5 days in presence of ddA by MTT assay; format: functional, organism-based; conditions: Human immunodeficiency virus 1, MT4, 120 h
[17] = Cytotoxicity against human MT4 cells assessed as reduction in cell viability incubated for 5 days in presence of ddA by MTT assay; format: cell-based; conditions: time 5 day
[18] = Selectivity index, ratio of CC50 for human MT4 cells to EC50 for antiviral activity against HIV-1 infected in human MT4 cells in presence of ddA; format: toxicity, cell-based; conditions: read-out: Ratio CC50/EC50
[19] = system: Human immunodeficiency virus 1; assay: Antiviral activity against HIV-1 infected in human CEM-TK(-) cells assessed as reduction in viral multiplication by measuring decrease in reverse transcriptase activity incubated for 6 days; format: functional, organism-based; conditions: Human immunodeficiency virus 1, CEM-TK(-), 144 h
[20] = Cytotoxicity against human CEM-TK(-) cells assessed as reduction in cell viability incubated for 5 days by MTT assay; format: cell-based; conditions: time 5 day
[21] = Selectivity index, ratio of CC50 for human CEM-TK(-) cells to EC50 for antiviral activity against HIV-1 infected in human CEM-TK(-) cells; format: toxicity, cell-based; conditions: read-out: Ratio CC50/EC50
[22] = system: Human immunodeficiency virus 1; assay: Antiviral activity against HIV-1 infected in human CEM-TK(-) cells assessed as reduction in viral multiplication by measuring decrease in reverse transcriptase activity incubated for 6 days in presence of AZT; format: functional, organism-based; conditions: Human immunodeficiency virus 1, CEM-TK(-), 144 h
[23] = Cytotoxicity against human CEM-TK(-) cells assessed as reduction in cell viability incubated for 5 days in presence of AZT by MTT assay; format: cell-based; conditions: time 5 day
[24] = Selectivity index, ratio of CC50 for human CEM-TK(-) cells to EC50 for antiviral activity against HIV-1 infected in human CEM-TK(-) cells in presence of AZT; format: toxicity, cell-based; conditions: read-out: Ratio CC50/EC50

SMILES	EC50 [1] [µM]	CC50 at 120 h [2] [µM]	selectivity ratio [3]	EC50 [4] [µM]	CC50 at 120 h [5] [µM]	selectivity ratio [6]	EC50 [19] [µM]	CC50 at 120 h [20] [µM]	also measured
Nc1ncnc2c1ncn2[C@H]1CC[C@@H](CO)O1	2	> 110	> 55	9	> 110	> 12	–	–	–
Nc1ccn([C@H]2CC[C@@H](CO)O2)c(=O)n1 [ZALCITABINE]	0.067	16	239	2	180	90	0.015	7	EC50 [7]: 0.016 µM; CC50 at 120 h [8]: 46 µM; selectivity ratio [9]: 2880; EC50 [10]: 0.01 µM; CC50 at 120 h [11]: 46 µM; selectivity ratio [12]: 4600; EC50 [13]: 0.083 µM; CC50 at 120 h [14]: 130 µM; selectivity ratio [15]: 15700; EC50 [16]: 1.2 µM; CC50 at 120 h [17]: > 100 µM; selectivity ratio [18]: > 83; selectivity ratio [21]: 467; EC50 [22]: 0.009 µM; CC50 at 120 h [23]: 8.3 µM; selectivity ratio [24]: 922
Cc1cn([C@H]2C[C@H](N=[N+]=[N-])[C@@H](CO)O2)c(=O)[nH]c1=O [ZIDOVUDINE]	0.024	> 1000	> 40000	–	140	8240	> 100	> 1000	–
